Measured values as given in patent publication US10286034B2, “Uses of bremelanotide in therapy for female sexual dysfunction” (Palatin Technologies, Inc., priority 2012, dated 2019).

Test: Subcutaneous trials in males: vomiting and tolerability
Assay type: in vivo, human
Details: intramuscular administration, males

Structure (SMILES): Cc1nccn1CC1CCc2c(c3ccccc3n2C)C1=O (stereo not shown) [ondansetron, reference compound]
- effect on bremelanotide-induced vomiting: Vomiting could be resolved
